One molecule from the NIST ThermoML archive (doi:10.1016/j.jct.2011.11.023) can be followed below.

Numbers after ± are expanded uncertainties.

One may read the mass density as the mass of a sample divided by its volume.

A short description of data set [1]: Molar enthalpy of transition or fusion. Particulars: DSC.
A short description of data set [2]: Solid-liquid equilibrium temperature. Particulars: 101.3 kPa, DSC.
For data set [3] the following is noted: 298 K; 101.33 kPa; Crystal 2; X-ray diffraction.

In the case of `O=C(O)c1cccnc1` [3-carboxylpyridine], the “Molar enthalpy of transition or fusion” value in data set [1] (Crystal 1) is 6.62 ± 0.191 kcal/mol; in data set [1] (Crystal 2), 0.308 ± 0.0311 kcal/mol. The figures for the Solid-liquid equilibrium temperature in data set [2] (Crystal 1) and in data set [2] (Crystal 2) were 507 ± 2 K and 453.6 ± 0.3 K, respectively. Moreover, the mass density in data set [3] came out at 1471 ± 2 kg/m3.
